According to paper doi:10.1101/2021.04.08.439011v1 (biorxiv, 2021):
Read-outs that look alike come from different tables or passages of the source.

Legend:
PLK2 = PLK2 (Homo sapiens, UniProt Q9NYY3); conditions: 1 µM; binder
SIK2 = SIK2 (Homo sapiens, UniProt Q9H0K1); conditions: 1 µM; binder
DMPK = DMPK (Homo sapiens, UniProt Q09013); conditions: 1 µM; binder
LATS2 = LATS2 (Homo sapiens, UniProt Q9NRM7); conditions: 1 µM; binder
WEE2 = WEE2 (Homo sapiens, UniProt P0C1S8); conditions: 1 µM; binder
EPHB6 = EPHB6 (Homo sapiens, UniProt O15197); conditions: 1 µM; binder
ARK5 = ARK5 (Homo sapiens, UniProt O60285); conditions: 1 µM; binder
ABL1(H396P) = ABL1(H396P) (Homo sapiens, UniProt P00519, H396P); conditions: 1 µM, binder
YSK4 = YSK4 (Homo sapiens, UniProt Q56UN5); conditions: 1 µM; binder
ERK8 = ERK8 (Homo sapiens, UniProt Q8TD08); conditions: 1 µM; binder
ULK2 = ULK2 (Homo sapiens, UniProt Q8IYT8); conditions: 1 µM; binder
CSK = CSK (Homo sapiens, UniProt P41240); conditions: 1 µM; binder
FLT3(ITD) = FLT3(ITD) (Homo sapiens, UniProt P36888); conditions: 1 µM; binder
FLT3(D835H) = FLT3(D835H) (Homo sapiens, UniProt P36888, D835H); conditions: 1 µM; binder
EPHA1 = EPHA1 (Homo sapiens, UniProt P21709); conditions: 1 µM; binder
CSNK1G1 = CSNK1G1 (Homo sapiens, UniProt Q9HCP0); conditions: 1 µM; binder
FLT3(D835Y) = FLT3(D835Y) (Homo sapiens, UniProt P36888, D835Y); conditions: 1 µM; binder
LRRK2 = LRRK2 (Homo sapiens, UniProt Q5S007); conditions: 1 µM; binder
NEK6 = NEK6 (Homo sapiens, UniProt Q9HC98); conditions: 1 µM; binder
PRKX = PRKX (Homo sapiens, UniProt P51817); conditions: 1 µM; binder
MKK7 = MKK7 (Homo sapiens, UniProt O14733); conditions: 1 µM; binder
BMX = BMX (Homo sapiens, UniProt P51813); conditions: 1 µM; binder
ABL1(F317I) = ABL1(F317I) (Homo sapiens, UniProt P00519, F317I); conditions: 1 µM, binder
EIF2AK1 = EIF2AK1 (Homo sapiens, UniProt Q9BQI3); conditions: 1 µM; binder
HIPK2 = HIPK2 (Homo sapiens, UniProt Q9H2X6); conditions: 1 µM; binder
CSNK2A1 = CSNK2A1 (Homo sapiens, UniProt P68400); conditions: 1 µM; binder
MAP3K14 = MAP3K14 (Homo sapiens, UniProt Q99558); conditions: 1 µM; binder
ZAP70 = ZAP70 (Homo sapiens, UniProt P43403); conditions: 1 µM; binder
LCK = LCK (Homo sapiens, UniProt P06239); conditions: 1 µM; binder
PKMYT1 = PKMYT1 (Homo sapiens, UniProt Q99640); conditions: 1 µM; binder
Chain of PKMYT1 (Q99640 whole entry): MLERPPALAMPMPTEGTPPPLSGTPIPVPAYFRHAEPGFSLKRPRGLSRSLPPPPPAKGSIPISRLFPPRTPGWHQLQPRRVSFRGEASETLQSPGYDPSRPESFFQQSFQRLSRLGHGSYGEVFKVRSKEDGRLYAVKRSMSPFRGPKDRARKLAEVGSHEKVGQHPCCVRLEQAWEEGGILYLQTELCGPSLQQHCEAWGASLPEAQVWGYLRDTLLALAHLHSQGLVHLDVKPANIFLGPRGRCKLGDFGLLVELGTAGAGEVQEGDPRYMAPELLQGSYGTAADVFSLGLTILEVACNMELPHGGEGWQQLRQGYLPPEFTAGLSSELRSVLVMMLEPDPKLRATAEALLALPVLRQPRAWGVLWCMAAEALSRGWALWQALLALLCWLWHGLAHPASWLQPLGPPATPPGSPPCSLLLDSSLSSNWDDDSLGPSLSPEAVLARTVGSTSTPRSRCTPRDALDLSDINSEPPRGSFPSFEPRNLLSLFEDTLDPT

Chain of PLK2 (Q9NYY3 whole entry): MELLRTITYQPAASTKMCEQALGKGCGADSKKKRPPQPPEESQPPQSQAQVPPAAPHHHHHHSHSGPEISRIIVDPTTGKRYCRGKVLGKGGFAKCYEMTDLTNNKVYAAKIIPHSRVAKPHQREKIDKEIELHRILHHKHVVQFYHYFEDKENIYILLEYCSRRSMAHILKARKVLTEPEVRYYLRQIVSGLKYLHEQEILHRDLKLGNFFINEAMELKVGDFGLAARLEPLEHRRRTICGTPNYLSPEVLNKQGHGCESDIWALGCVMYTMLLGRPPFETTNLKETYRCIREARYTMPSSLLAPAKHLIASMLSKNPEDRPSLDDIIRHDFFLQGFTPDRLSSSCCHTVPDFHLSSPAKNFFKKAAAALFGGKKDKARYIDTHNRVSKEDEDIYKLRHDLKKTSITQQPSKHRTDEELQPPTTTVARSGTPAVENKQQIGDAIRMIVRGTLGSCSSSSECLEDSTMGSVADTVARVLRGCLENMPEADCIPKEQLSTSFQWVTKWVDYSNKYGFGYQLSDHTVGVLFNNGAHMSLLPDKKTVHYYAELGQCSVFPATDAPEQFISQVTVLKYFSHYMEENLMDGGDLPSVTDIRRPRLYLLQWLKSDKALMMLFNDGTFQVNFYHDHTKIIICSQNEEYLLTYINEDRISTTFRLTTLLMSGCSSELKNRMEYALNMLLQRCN
Chain of YSK4 (Q56UN5 whole entry): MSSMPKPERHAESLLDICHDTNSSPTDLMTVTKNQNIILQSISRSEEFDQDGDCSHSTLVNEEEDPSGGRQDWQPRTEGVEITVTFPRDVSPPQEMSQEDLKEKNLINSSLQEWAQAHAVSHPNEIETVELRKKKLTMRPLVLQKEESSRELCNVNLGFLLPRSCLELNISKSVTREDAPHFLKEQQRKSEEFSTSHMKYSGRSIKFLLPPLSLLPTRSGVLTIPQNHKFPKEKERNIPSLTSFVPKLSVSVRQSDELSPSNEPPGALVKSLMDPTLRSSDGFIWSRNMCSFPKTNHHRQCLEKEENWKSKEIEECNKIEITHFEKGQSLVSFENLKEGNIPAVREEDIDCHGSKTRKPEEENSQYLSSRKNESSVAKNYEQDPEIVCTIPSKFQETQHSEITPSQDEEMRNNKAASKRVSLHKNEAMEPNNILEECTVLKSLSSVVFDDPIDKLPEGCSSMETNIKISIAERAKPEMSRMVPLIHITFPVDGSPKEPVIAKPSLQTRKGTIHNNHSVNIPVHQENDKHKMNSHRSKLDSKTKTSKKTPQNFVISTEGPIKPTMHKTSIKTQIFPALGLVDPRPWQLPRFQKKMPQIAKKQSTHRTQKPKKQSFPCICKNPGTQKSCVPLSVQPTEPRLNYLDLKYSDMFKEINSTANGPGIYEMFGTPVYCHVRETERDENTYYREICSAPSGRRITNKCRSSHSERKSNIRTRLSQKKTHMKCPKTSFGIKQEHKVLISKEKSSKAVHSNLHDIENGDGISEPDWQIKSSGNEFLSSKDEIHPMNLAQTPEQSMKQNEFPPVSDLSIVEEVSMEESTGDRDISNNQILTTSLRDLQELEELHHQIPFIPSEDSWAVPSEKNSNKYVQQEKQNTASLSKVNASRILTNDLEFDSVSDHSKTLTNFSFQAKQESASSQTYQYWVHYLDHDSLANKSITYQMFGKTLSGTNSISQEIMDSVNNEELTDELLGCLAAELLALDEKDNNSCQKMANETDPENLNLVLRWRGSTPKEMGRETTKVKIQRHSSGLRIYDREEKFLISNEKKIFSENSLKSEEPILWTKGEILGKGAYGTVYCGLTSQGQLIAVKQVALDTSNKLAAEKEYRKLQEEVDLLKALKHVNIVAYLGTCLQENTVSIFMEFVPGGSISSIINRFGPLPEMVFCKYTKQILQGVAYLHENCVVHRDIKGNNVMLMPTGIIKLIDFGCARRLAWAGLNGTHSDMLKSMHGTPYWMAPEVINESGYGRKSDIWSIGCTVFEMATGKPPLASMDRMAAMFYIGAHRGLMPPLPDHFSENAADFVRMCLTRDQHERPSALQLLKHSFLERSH
Chain of LRRK2 (Q5S007 whole entry): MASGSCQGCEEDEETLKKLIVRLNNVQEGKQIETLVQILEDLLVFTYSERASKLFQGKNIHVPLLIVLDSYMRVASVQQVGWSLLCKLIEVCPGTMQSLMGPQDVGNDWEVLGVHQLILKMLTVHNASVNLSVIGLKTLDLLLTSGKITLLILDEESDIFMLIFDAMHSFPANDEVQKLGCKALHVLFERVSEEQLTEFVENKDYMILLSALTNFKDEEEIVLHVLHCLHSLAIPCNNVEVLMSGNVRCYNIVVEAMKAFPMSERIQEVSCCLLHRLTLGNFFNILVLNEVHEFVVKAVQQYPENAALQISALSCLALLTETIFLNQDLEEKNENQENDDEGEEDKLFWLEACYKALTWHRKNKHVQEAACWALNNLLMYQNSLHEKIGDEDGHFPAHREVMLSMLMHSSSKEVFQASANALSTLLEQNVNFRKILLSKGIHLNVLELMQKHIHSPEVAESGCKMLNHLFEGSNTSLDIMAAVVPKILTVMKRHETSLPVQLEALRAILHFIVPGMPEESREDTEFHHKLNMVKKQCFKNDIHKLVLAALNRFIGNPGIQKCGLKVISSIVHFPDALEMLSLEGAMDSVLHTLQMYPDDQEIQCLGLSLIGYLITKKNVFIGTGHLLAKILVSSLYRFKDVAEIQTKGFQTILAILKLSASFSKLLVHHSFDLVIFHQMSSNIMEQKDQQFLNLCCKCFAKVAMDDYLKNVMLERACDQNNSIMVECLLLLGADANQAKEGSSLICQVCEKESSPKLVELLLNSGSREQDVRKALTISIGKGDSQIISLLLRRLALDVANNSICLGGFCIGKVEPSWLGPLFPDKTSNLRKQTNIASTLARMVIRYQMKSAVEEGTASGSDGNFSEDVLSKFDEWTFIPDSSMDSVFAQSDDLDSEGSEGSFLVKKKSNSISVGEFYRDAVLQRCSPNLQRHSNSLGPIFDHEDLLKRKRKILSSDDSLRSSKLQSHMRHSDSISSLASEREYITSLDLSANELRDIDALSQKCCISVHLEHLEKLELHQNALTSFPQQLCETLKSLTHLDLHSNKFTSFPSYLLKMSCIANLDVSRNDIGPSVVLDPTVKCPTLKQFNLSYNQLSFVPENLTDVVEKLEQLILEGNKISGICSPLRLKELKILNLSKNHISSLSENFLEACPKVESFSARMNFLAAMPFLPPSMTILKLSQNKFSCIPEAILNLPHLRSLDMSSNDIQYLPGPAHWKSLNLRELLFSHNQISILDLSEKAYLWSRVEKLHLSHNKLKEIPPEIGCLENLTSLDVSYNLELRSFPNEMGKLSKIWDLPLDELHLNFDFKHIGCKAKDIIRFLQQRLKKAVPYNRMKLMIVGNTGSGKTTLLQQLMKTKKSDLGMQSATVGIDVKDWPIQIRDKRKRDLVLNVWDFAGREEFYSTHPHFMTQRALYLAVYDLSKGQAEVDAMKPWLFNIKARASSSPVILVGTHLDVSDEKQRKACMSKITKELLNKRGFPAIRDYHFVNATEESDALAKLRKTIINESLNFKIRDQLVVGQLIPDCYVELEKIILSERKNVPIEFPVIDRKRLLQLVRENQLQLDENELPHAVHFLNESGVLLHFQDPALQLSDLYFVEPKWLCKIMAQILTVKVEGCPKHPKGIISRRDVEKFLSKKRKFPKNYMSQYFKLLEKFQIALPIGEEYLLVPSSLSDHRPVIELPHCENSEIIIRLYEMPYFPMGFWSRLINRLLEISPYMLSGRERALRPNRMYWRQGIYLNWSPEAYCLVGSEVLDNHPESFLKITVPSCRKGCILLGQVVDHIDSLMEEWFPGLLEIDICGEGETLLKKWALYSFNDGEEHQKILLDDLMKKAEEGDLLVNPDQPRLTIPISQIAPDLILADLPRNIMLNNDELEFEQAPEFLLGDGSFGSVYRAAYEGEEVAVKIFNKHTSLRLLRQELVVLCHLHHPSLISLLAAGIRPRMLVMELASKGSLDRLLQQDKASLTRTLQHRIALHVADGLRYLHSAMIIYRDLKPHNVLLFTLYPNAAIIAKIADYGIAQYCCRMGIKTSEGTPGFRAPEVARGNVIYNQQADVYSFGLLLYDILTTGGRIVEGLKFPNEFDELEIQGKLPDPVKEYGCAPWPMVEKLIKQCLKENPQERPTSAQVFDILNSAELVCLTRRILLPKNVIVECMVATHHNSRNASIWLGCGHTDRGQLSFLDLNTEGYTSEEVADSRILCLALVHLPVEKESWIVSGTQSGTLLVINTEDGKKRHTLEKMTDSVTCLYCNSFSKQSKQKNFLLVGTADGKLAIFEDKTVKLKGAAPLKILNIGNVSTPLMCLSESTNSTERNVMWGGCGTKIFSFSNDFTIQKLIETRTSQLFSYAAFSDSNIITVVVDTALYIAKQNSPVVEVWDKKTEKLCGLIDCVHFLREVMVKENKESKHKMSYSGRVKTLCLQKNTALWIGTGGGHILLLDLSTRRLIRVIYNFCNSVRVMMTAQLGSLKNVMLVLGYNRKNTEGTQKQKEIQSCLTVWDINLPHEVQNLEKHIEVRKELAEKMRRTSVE

SMILES: CNc1ncc2cc(-c3ccc(-c4cccc(C)n4)cc3Cl)c(=O)n(C[C@H]3OC[C@H](N)CO3)c2n1 [compound 6, G-5555]
- Percent Control (PLK2): 84%
- Percent Control (SIK2): 0.8%
- Percent Control (DMPK): 100%
- Percent Control (LATS2): 8%
- Percent Control (WEE2): 100%
- Percent Control (EPHB6): 9%
- Percent Control (ARK5): 24%
- Percent Control (ABL1(H396P); nonphosphorylated): 56%
- Percent Control (ABL1(H396P); phosphorylated): 94%
- Percent Control (YSK4): 19%
- Percent Control (ERK8): 100%
- Percent Control (ULK2): 100%
- Percent Control (CSK): 85%
- Percent Control (FLT3(ITD)): 100%
- Percent Control (FLT3(D835H)): 99%
- Percent Control (EPHA1): 34%
- Percent Control (CSNK1G1): 100%
- Percent Control (FLT3(D835Y)): 81%
- Percent Control (LRRK2): 100%
- Percent Control (NEK6): 100%
- Percent Control (PRKX): 100%
- Percent Control (MKK7): 77%
- Percent Control (BMX): 100%
- Percent Control (ABL1(F317I); nonphosphorylated): 100%
- Percent Control (ABL1(F317I); phosphorylated): 96%
- Percent Control (EIF2AK1): 100%
- Percent Control (HIPK2): 100%
- Percent Control (CSNK2A1): 98%
- Percent Control (MAP3K14): 100%
- Percent Control (ZAP70): 100%
- Percent Control (LCK): 11%
- Percent Control (PKMYT1): 100%
